{"source": "paper PMC5290327", "about": "“SC83288 is a clinical development candidate for the treatment of severe malaria” (Nature Communications, 2017)", "test_in_all_cases": "KINOMEscan", "format_in_all_cases": "binding", "details_in_all_cases": "read-out: Remaining enzyme activity", "key": {"p38-beta": {"biological_target": "T1, p38-beta (Homo sapiens, UniProt Q15759)", "T1 construct": "purchased Ambit (DiscoverX) KINOMEscan; Cerep", "in_short": "(§1)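 Three components per well: DNA-labelled kinase, bead-bound ligand, compound (SC81458, 10 μM final). Blocking buffer: SeaBlock, 1% BSA, 0.05% Tween 20, 1 mM DTT. Readout = qPCR of kinase in eluate.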"}, "CLK1": {"biological_target": "T2, CLK1 (Homo sapiens, UniProt P49759)", "T2 construct": "purchased Ambit (DiscoverX) KINOMEscan; Cerep", "in_short": "as §1"}, "EGFR": {"biological_target": "T3, EGFR (Homo sapiens, UniProt P00533)", "T3 construct": "purchased Ambit (DiscoverX) KINOMEscan; Cerep", "in_short": "as §1"}, "TNK1": {"biological_target": "T4, TNK1 (Homo sapiens, UniProt Q13470)", "T4 construct": "purchased Ambit (DiscoverX) KINOMEscan; Cerep", "in_short": "as §1"}, "[1]": {"biological_target": "T5, JAK3(JH1domain-catalytic) (Homo sapiens, UniProt P52333)", "T5 construct": "JAK3(JH1domain-catalytic); purchased Ambit (DiscoverX) KINOMEscan; Cerep", "T5 sequence (P52333 822-1124 limits assumed)": "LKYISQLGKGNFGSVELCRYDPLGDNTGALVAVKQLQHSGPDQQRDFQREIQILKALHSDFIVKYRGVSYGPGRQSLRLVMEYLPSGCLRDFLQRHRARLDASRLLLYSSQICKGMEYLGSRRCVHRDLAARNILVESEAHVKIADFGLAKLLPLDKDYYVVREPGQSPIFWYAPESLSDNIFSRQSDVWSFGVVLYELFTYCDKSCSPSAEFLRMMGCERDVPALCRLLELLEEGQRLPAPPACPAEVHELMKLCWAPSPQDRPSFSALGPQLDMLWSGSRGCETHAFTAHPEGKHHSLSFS", "in_short": "as §1"}, "PDGFRa": {"biological_target": "T6, PDGFRa (Homo sapiens, UniProt P16234)", "T6 construct": "purchased Ambit (DiscoverX) KINOMEscan; Cerep", "in_short": "as §1"}, "SRMS": {"biological_target": "T7, SRMS (Homo sapiens, UniProt Q9H3Y6)", "T7 construct": "purchased Ambit (DiscoverX) KINOMEscan; Cerep", "in_short": "as §1"}, "MAP4K5": {"biological_target": "T8, MAP4K5 (Homo sapiens, UniProt Q9Y4K4)", "T8 construct": "purchased Ambit (DiscoverX) KINOMEscan; Cerep", "in_short": "as §1"}, "NIM1": {"biological_target": "T9, NIM1 (Homo sapiens, UniProt Q8IY84)", "T9 construct": "purchased Ambit (DiscoverX) KINOMEscan; Cerep", "in_short": "as §1"}, "MAP4K4": {"biological_target": "T10, MAP4K4 (Homo sapiens, UniProt O95819)", "T10 construct": "purchased Ambit (DiscoverX) KINOMEscan; Cerep", "in_short": "as §1"}, "PKMYT1": {"biological_target": "T11, PKMYT1 (Homo sapiens, UniProt Q99640)", "T11 construct": "purchased Ambit (DiscoverX) KINOMEscan; Cerep", "in_short": "as §1"}, "PAK1": {"biological_target": "T12, PAK1 (Homo sapiens, UniProt Q13153)", "T12 construct": "purchased Ambit (DiscoverX) KINOMEscan; Cerep", "in_short": "as §1"}, "FLT3(D835Y)": {"biological_target": "T13, FLT3(D835Y) (Homo sapiens, UniProt P36888, D835Y)", "T13 construct": "purchased Ambit (DiscoverX) KINOMEscan; Cerep", "in_short": "as §1"}, "ULK2": {"biological_target": "T14, ULK2 (Homo sapiens, UniProt Q8IYT8)", "T14 construct": "purchased Ambit (DiscoverX) KINOMEscan; Cerep", "in_short": "as §1"}, "PIM1": {"biological_target": "T15, PIM1 (Homo sapiens, UniProt P11309)", "T15 construct": "purchased Ambit (DiscoverX) KINOMEscan; Cerep", "in_short": "as §1"}, "ABL1(Q252H)": {"biological_target": "T16, ABL1(Q252H) (Homo sapiens, UniProt P00519, Q252H)", "T16 construct": "purchased Ambit (DiscoverX) KINOMEscan; Cerep", "in_short": "as §1"}, "ERN1": {"biological_target": "T17, ERN1 (Homo sapiens, UniProt O75460)", "T17 construct": "purchased Ambit (DiscoverX) KINOMEscan; Cerep", "T17 sequence (O75460 19-977)": "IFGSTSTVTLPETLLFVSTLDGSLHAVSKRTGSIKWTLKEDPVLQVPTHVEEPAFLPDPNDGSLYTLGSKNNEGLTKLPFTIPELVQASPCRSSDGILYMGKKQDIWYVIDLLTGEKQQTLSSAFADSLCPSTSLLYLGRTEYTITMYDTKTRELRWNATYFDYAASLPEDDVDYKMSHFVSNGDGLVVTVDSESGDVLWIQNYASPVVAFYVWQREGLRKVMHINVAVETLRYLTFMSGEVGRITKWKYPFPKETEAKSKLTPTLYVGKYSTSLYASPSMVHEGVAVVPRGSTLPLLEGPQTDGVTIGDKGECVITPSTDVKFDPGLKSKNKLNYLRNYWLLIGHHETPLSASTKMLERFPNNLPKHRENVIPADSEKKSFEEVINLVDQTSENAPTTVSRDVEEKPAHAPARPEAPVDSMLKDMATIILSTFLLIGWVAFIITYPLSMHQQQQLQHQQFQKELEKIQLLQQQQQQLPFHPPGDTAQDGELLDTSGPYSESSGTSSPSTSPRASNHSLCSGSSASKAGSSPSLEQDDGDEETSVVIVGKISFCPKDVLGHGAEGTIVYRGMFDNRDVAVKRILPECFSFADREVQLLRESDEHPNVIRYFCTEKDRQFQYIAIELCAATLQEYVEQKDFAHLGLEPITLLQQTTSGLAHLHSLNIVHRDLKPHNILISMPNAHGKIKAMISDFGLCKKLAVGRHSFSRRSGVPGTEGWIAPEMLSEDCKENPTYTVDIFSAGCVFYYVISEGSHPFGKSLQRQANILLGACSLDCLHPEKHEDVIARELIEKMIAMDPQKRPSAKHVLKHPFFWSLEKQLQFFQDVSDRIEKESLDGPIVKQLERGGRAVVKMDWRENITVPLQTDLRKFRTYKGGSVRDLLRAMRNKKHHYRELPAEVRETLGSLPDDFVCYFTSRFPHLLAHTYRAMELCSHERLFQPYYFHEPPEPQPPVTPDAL", "in_short": "as §1"}, "ACVR2a": {"biological_target": "T18, ACVR2a (Homo sapiens, UniProt P27037)", "T18 construct": "purchased Ambit (DiscoverX) KINOMEscan; Cerep", "T18 sequence (P27037 20-513)": "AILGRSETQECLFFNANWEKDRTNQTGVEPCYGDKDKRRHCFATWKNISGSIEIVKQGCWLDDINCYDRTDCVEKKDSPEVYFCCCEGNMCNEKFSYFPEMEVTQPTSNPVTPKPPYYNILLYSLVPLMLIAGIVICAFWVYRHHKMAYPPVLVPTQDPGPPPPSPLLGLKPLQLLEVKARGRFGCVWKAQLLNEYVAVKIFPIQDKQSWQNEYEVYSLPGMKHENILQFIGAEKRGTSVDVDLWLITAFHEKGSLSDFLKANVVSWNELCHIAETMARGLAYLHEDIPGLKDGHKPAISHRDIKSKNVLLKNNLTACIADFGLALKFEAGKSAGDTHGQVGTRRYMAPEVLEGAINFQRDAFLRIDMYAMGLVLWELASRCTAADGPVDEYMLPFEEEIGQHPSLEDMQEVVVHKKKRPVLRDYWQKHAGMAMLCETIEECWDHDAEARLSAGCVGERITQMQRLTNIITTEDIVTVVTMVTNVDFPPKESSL", "in_short": "as §1"}, "CDK8": {"biological_target": "T19, CDK8 (Homo sapiens, UniProt P49336)", "T19 construct": "purchased Ambit (DiscoverX) KINOMEscan; Cerep", "in_short": "as §1"}, "DMPK2": {"biological_target": "T20, DMPK2 (Homo sapiens, UniProt Q6DT37)", "T20 construct": "purchased Ambit (DiscoverX) KINOMEscan; Cerep", "in_short": "as §1"}, "EPHA3": {"biological_target": "T21, EPHA3 (Homo sapiens, UniProt P29320)", "T21 construct": "purchased Ambit (DiscoverX) KINOMEscan; Cerep", "T21 sequence (P29320 21-983)": "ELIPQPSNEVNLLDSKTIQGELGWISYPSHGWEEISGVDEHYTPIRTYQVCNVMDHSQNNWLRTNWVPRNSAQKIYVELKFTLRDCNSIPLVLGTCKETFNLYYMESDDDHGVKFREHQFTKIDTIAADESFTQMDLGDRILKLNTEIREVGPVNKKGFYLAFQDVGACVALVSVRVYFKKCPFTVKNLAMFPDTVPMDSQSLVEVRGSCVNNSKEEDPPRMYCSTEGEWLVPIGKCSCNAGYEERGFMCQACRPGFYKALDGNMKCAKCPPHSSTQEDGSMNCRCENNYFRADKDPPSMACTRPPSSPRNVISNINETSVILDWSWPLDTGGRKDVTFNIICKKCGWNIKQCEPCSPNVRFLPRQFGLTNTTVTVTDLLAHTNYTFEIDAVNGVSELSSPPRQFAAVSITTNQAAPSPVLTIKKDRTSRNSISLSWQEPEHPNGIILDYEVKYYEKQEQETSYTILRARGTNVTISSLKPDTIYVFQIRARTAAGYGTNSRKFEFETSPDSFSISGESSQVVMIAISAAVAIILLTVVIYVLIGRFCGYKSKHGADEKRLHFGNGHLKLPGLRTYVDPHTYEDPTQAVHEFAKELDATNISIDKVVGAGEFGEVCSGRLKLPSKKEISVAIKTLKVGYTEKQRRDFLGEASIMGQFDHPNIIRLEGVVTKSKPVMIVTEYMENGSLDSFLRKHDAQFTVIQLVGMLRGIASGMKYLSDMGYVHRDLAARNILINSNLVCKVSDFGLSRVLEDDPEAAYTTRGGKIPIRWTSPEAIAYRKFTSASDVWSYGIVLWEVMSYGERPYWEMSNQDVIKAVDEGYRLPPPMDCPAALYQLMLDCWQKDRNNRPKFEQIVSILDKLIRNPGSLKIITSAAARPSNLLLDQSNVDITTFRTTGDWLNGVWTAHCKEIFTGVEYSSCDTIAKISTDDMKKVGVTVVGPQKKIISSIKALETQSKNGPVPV", "in_short": "as §1"}, "p38-alpha": {"biological_target": "T22, p38-alpha (Homo sapiens, UniProt Q16539)", "T22 construct": "purchased Ambit (DiscoverX) KINOMEscan; Cerep", "in_short": "as §1"}, "FLT3(D835H)": {"biological_target": "T23, FLT3(D835H) (Homo sapiens, UniProt P36888, D835H)", "T23 construct": "purchased Ambit (DiscoverX) KINOMEscan; Cerep", "in_short": "as §1"}, "PIK3CA(H1047Y)": {"biological_target": "T24, PIK3CA(H1047Y) (Homo sapiens, UniProt P42336, H1047Y)", "T24 construct": "purchased Ambit (DiscoverX) KINOMEscan; Cerep", "T24 sequence (P42336 whole entry H1047Y)": "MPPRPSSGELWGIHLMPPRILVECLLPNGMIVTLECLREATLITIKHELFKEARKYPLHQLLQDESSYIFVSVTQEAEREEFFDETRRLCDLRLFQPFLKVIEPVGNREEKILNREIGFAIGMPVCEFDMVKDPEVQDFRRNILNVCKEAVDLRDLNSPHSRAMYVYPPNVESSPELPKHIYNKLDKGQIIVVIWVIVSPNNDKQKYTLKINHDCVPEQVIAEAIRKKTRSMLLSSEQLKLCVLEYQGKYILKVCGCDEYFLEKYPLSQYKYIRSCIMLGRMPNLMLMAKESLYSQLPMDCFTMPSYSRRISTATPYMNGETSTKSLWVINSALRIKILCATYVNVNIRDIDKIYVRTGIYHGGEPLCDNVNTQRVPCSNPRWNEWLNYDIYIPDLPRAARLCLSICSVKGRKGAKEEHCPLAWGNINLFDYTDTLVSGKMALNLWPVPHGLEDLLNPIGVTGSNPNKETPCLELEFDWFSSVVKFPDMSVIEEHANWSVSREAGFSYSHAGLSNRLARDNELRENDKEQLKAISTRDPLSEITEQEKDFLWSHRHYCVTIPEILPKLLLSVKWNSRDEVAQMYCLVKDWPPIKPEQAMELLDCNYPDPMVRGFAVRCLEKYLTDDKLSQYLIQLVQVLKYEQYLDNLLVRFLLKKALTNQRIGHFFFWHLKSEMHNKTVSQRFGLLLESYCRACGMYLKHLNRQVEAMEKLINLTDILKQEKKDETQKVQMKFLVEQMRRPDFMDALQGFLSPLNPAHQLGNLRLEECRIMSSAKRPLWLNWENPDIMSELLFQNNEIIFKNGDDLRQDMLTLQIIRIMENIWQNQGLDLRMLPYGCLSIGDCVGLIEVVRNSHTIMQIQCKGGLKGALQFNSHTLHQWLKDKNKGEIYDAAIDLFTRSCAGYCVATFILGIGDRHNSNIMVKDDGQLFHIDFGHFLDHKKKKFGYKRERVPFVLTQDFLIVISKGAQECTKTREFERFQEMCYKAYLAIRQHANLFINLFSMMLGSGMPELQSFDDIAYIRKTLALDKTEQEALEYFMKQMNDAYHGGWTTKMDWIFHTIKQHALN", "in_short": "as §1"}, "CTK": {"biological_target": "T25, CTK (Homo sapiens, UniProt P42679)", "T25 construct": "purchased Ambit (DiscoverX) KINOMEscan; Cerep", "in_short": "as §1"}, "DCAMKL2": {"biological_target": "T26, DCAMKL2 (Homo sapiens, UniProt Q8N568)", "T26 construct": "purchased Ambit (DiscoverX) KINOMEscan; Cerep", "in_short": "as §1"}, "TAO1": {"biological_target": "T27, TAO1 (Homo sapiens, UniProt Q9UL54)", "T27 construct": "purchased Ambit (DiscoverX) KINOMEscan; Cerep", "in_short": "as §1"}, "NEK9": {"biological_target": "T28, NEK9 (Homo sapiens, UniProt Q8TD19)", "T28 construct": "purchased Ambit (DiscoverX) KINOMEscan; Cerep", "in_short": "as §1"}, "OSR1": {"biological_target": "T29, OSR1 (Homo sapiens, UniProt O95747)", "T29 construct": "purchased Ambit (DiscoverX) KINOMEscan; Cerep", "in_short": "as §1"}, "MET(Y1235D)": {"biological_target": "T30, MET(Y1235D) (Homo sapiens, UniProt P08581, Y1235D)", "T30 construct": "purchased Ambit (DiscoverX) KINOMEscan; Cerep", "in_short": "as §1"}, "PRKCE": {"biological_target": "T31, PRKCE (Homo sapiens, UniProt Q02156)", "T31 construct": "purchased Ambit (DiscoverX) KINOMEscan; Cerep", "T31 sequence (Q02156 whole entry)": "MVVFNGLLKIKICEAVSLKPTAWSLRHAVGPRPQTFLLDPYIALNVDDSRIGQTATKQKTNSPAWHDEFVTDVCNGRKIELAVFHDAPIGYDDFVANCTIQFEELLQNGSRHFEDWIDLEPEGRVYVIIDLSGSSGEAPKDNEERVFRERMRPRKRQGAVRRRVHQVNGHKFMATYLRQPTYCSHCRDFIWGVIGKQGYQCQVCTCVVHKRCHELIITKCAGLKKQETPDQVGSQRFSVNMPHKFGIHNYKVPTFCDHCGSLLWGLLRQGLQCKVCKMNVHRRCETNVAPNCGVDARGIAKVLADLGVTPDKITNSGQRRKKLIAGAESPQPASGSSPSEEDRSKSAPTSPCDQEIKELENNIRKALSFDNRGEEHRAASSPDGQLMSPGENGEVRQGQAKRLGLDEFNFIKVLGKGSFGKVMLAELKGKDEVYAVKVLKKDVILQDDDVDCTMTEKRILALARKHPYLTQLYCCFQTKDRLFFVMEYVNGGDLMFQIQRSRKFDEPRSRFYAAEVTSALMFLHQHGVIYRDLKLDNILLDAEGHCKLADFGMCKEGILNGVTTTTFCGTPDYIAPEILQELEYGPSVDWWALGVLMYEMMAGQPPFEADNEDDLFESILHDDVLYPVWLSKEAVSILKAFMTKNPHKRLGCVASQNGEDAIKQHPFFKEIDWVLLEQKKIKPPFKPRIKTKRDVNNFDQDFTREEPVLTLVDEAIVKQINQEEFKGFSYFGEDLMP", "in_short": "as §1"}, "ADCK3": {"biological_target": "T32, ADCK3 (Homo sapiens, UniProt Q8NI60)", "T32 construct": "purchased Ambit (DiscoverX) KINOMEscan; Cerep", "T32 sequence (Q8NI60 163-647)": "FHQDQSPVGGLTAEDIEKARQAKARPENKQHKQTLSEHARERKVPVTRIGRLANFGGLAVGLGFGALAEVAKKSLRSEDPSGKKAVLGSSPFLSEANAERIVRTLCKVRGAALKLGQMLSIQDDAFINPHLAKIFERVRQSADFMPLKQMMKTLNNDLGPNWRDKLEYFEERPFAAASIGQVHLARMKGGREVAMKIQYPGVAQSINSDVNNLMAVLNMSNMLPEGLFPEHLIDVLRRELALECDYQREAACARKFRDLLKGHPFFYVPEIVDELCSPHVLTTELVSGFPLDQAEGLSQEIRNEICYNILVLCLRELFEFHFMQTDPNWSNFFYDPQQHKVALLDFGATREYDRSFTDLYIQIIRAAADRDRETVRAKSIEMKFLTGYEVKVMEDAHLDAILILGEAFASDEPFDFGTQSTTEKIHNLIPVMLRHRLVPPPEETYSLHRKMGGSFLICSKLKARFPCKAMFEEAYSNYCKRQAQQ", "in_short": "as §1"}, "JNK1": {"biological_target": "T33, JNK1 (Homo sapiens, UniProt P45983)", "T33 construct": "purchased Ambit (DiscoverX) KINOMEscan; Cerep", "in_short": "as §1"}}}
{"smiles": "CCCCN1CCN(C(=N)c2cccc(NC(=O)Nc3ccc(S(=O)(=O)NCc4ccc(S(N)(=O)=O)cc4)cc3)c2)CC1", "note": "[SC81458, 4-(3-(3-((4-butylpiperazin-1-yl)(imino)methyl)phenyl)ureido)-N-(4-sulfamoylbenzyl) benzenesulfonamide]", "values": [{"measurement": "remaining binding at 10 µM", "setting": "p38-beta", "result": 100, "unit": "%"}, {"measurement": "remaining binding at 10 µM", "setting": "CLK1", "result": 100, "unit": "%"}, {"measurement": "remaining binding at 10 µM", "setting": "EGFR", "result": 100, "unit": "%"}, {"measurement": "remaining binding at 10 µM", "setting": "TNK1", "result": 70, "unit": "%"}, {"measurement": "remaining binding at 10 µM", "setting": "[1]", "result": 100, "unit": "%"}, {"measurement": "remaining binding at 10 µM", "setting": "PDGFRa", "result": 87, "unit": "%"}, {"measurement": "remaining binding at 10 µM", "setting": "SRMS", "result": 79, "unit": "%"}, {"measurement": "remaining binding at 10 µM", "setting": "MAP4K5", "result": 100, "unit": "%"}, {"measurement": "remaining binding at 10 µM", "setting": "NIM1", "result": 100, "unit": "%"}, {"measurement": "remaining binding at 10 µM", "setting": "MAP4K4", "result": 100, "unit": "%"}, {"measurement": "remaining binding at 10 µM", "setting": "PKMYT1", "result": 90, "unit": "%"}, {"measurement": "remaining binding at 10 µM", "setting": "PAK1", "result": 100, "unit": "%"}, {"measurement": "remaining binding at 10 µM", "setting": "FLT3(D835Y)", "result": 89, "unit": "%"}, {"measurement": "remaining binding at 10 µM", "setting": "ULK2", "result": 100, "unit": "%"}, {"measurement": "remaining binding at 10 µM", "setting": "PIM1", "result": 100, "unit": "%"}, {"measurement": "remaining binding at 10 µM", "setting": "ABL1(Q252H)", "result": 95, "unit": "%"}, {"measurement": "remaining binding at 10 µM", "setting": "ERN1", "result": 100, "unit": "%"}, {"measurement": "remaining binding at 10 µM", "setting": "ACVR2a", "result": 100, "unit": "%"}, {"measurement": "remaining binding at 10 µM", "setting": "CDK8", "result": 100, "unit": "%"}, {"measurement": "remaining binding at 10 µM", "setting": "DMPK2", "result": 100, "unit": "%"}, {"measurement": "remaining binding at 10 µM", "setting": "EPHA3", "result": 100, "unit": "%"}, {"measurement": "remaining binding at 10 µM", "setting": "p38-alpha", "result": 88, "unit": "%"}, {"measurement": "remaining binding at 10 µM", "setting": "FLT3(D835H)", "result": 100, "unit": "%"}, {"measurement": "remaining binding at 10 µM", "setting": "PIK3CA(H1047Y)", "result": 100, "unit": "%"}, {"measurement": "remaining binding at 10 µM", "setting": "CTK", "result": 100, "unit": "%"}, {"measurement": "remaining binding at 10 µM", "setting": "DCAMKL2", "result": 100, "unit": "%"}, {"measurement": "remaining binding at 10 µM", "setting": "TAO1", "result": 100, "unit": "%"}, {"measurement": "remaining binding at 10 µM", "setting": "NEK9", "result": 100, "unit": "%"}, {"measurement": "remaining binding at 10 µM", "setting": "OSR1", "result": 100, "unit": "%"}, {"measurement": "remaining binding at 10 µM", "setting": "MET(Y1235D)", "result": 100, "unit": "%"}, {"measurement": "remaining binding at 10 µM", "setting": "PRKCE", "result": 100, "unit": "%"}, {"measurement": "remaining binding at 10 µM", "setting": "ADCK3", "result": 100, "unit": "%"}, {"measurement": "remaining binding at 10 µM", "setting": "JNK1", "result": 98, "unit": "%"}]}
